Target: human Nav1.7 (Homo sapiens (Human), UniProt Q15858)
Assay: Nav 1.7 in vitro PatchXpress (PX) assay
Format: cell-based
Conditions: not given

Chain of human Nav1.7 (Q15858 whole entry): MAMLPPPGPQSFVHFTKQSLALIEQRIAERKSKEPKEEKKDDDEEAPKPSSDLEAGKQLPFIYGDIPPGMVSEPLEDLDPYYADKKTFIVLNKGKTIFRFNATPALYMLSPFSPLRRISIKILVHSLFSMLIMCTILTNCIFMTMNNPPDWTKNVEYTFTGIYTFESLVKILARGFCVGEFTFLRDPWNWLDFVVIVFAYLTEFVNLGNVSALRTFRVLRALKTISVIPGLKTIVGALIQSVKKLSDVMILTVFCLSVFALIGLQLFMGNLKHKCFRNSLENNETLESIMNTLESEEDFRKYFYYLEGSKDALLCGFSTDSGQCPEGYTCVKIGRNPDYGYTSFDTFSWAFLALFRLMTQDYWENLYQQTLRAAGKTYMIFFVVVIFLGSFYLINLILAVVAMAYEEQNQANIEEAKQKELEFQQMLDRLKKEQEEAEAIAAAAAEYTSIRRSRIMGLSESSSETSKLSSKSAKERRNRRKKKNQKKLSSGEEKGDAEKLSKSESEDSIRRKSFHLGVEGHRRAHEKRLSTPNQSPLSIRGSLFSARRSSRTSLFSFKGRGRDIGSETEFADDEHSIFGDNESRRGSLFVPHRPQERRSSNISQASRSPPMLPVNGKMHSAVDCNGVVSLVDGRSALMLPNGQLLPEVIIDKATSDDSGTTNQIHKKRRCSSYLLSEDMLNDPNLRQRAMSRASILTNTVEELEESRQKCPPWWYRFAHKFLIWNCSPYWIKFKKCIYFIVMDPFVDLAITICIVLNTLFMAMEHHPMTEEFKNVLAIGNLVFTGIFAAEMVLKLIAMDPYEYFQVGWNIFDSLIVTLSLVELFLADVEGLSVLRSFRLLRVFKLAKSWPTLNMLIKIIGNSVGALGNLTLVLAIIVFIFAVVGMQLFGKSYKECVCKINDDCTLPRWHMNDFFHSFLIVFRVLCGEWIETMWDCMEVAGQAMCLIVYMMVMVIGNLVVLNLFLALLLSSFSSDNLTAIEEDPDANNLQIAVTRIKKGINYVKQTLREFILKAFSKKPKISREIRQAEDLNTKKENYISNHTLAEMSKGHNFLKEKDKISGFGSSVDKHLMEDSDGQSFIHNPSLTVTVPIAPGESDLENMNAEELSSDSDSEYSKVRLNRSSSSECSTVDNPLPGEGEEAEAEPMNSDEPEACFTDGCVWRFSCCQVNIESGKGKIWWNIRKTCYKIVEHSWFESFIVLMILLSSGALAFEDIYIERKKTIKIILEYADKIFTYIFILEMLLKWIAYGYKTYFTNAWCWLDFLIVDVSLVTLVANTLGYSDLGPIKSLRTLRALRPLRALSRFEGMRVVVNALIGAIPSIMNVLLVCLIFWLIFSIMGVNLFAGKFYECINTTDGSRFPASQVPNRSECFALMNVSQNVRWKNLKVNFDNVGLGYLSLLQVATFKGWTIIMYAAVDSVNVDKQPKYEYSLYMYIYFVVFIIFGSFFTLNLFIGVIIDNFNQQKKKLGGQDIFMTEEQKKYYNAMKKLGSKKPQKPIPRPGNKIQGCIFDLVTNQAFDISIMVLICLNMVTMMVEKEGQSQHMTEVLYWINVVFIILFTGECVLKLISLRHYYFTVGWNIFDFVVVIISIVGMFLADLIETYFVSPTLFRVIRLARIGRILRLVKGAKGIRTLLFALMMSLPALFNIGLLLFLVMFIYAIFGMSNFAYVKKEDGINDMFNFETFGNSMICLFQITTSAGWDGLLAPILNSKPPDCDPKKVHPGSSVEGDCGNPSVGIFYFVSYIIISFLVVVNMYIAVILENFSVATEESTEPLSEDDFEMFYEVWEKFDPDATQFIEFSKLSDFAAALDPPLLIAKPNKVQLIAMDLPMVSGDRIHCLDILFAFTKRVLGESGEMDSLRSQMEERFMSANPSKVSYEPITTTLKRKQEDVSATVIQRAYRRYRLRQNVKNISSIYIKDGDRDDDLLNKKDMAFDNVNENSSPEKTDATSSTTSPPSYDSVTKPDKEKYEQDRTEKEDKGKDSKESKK

Cc1cc(C(=O)NS(C)(=O)=O)c(F)cc1-c1cnc(Oc2cccc3c2CCCC3)c(Cl)c1 [Example 610, 4-(5-chloro-6-(5,6,7,8-tetrahydro-1-naphthalenyloxy)-3-pyridinyl)-2-fluoro-5-methyl-N-(methylsulfonyl)benzamide] was tested. Which IC50 did it give?
Its IC50 is 104 nM.

With COc1cc(C(=O)NS(C)(=O)=O)ccc1-c1cnc(Oc2cccc(Cl)c2Cl)c(Cl)c1 [Example 583, 4-(5-Chloro-6-(2,3-Dichlorophenoxy)Pyridin-3-yl)-3-Methoxy-N-(Methylsulfonyl)Benzamide] as the compound, how does the IC50 read?
Its IC50 is 30.5 nM.

For Cc1cccc(Cl)c1Oc1ncc(-c2ccc(C(=O)NS(C)(=O)=O)cc2OC(F)F)cc1Cl [Example 468, 4-(5-chloro-6-(2-chloro-6-methylphenoxy)-3-pyridinyl)-3-(difluoromethoxy)-N-(methylsulfonyl)benzamide], which IC50 is on record?
Its IC50 is 53.5 nM.

Cc1cc(C(=O)NS(C)(=O)=O)c(F)cc1-c1cnc(OC(C(F)(F)F)C(F)(F)F)c(Cl)c1 [Example 686, 4-(5-chloro-6-(2,2,2-trifluoro-1-(trifluoromethyl)ethoxy)-3-pyridinyl)-2-fluoro-5-methyl-N-(methylsulfonyl)benzamide] was tested. Which IC50 did it give?
The IC50 was 115 nM.

COc1cc(C(=O)NS(C)(=O)=O)c(F)cc1-c1cnc(Oc2cccc(Cl)c2C)c(Cl)c1 [Example 704, 4-(5-chloro-6-(3-chloro-2-methylphenoxy)-3-pyridinyl)-2-fluoro-5-methoxy-N-(methylsulfonyl)benzamide] was tested. Which IC50 did it give?
The IC50 was 46.8 nM.

With Cc1cc(C(=O)NS(C)(=O)=O)c(F)cc1-c1cnc(Oc2ccc(F)cc2C(F)(F)F)c(Cl)c1 [Example 678, 4-(5-chloro-6-(4-fluoro-2-(trifluoromethyl)phenoxy)-3-pyridinyl)-2-fluoro-5-methyl-N-(methylsulfonyl)benzamide] as the compound, how does the IC50 read?
Its IC50 is 74.4 nM.

With Cc1cccc(Cl)c1Oc1ncc(-c2ccc(C(=O)NS(C)(=O)=O)cc2OC2COC2)cc1Cl [Example 426, 4-(5-chloro-6-(2-chloro-6-methylphenoxy)-3-pyridinyl)-N-(methylsulfonyl)-3-(3-oxetanyloxy)benzamide] as the compound, how does the IC50 read?
Its IC50 is 75 nM.

Which IC50 does the source give for Cc1c(Cl)cccc1Oc1ncc(-c2ccc(C(=O)NS(C)(=O)=O)cc2OC(F)F)cc1Cl [Example 586, 4-(5-chloro-6-(3-chloro-2-methylphenoxy)-3-pyridinyl)-3-(difluoromethoxy)-N-(methylsulfonyl)benzamide] here?
Its IC50 is 34.6 nM.

Cc1cc(C(=O)NS(C)(=O)=O)c(F)cc1-c1cnc(OCCC2CC2)c(Cl)c1 [Example 683, 4-(5-chloro-6-(2-cyclopropylethoxy)-3-pyridinyl)-2-fluoro-5-methyl-N-(methylsulfonyl)benzamide] was tested. Which IC50 did it give?
Its IC50 is 111 nM.

Which IC50 does the source give for COc1cc(C(=O)NS(C)(=O)=O)ccc1-c1cnc(Oc2cc(Cl)cc(OC(F)(F)F)c2)c(Cl)c1 [Example 372, 4-(5-chloro-6-(3-chloro-5-(trifluoromethoxy)phenoxy)-3-pyridinyl)-3-methoxy-N-(methylsulfonyl)benzamide] here?
The IC50 was 50.4 nM.

Which IC50 does the source give for C[C@H](Oc1ncc(-c2ccc(C(=O)NS(C)(=O)=O)cc2OC(F)F)cc1Cl)c1ccccc1 [Example 457, 4-(5-chloro-6-((1S)-1-phenylethoxy)-3-pyridinyl)-3-(difluoromethoxy)-N-(methylsulfonyl)benzamide] here?
The IC50 was 80 nM.

How did the IC50 turn out when Cc1cc(C(=O)NS(C)(=O)=O)c(F)cc1-c1cnc(Oc2ccc(F)c(Cl)c2)c(Cl)c1 [Example 626, 4-(5-chloro-6-(3-chloro-4-fluorophenoxy)-3-pyridinyl)-2-fluoro-5-methyl-N-(methylsulfonyl)benzamide] was run?
The IC50 was 108 nM.

With COc1cc(C(=O)NS(C)(=O)=O)ccc1-c1cnc(Oc2cc(F)ccc2F)c(Cl)c1 [Example 363, 4-(5-chloro-6-(2,5-difluorophenoxy)-3-pyridinyl)-3-methoxy-N-(methylsulfonyl)benzamide] as the compound, how does the IC50 read?
Its IC50 is 100 nM.

How did the IC50 turn out when CS(=O)(=O)NC(=O)c1ccc(-c2cnc(Oc3ccc4ccccc4c3)c(Cl)c2)c(OC2COC2)c1 [Example 424, 4-(5-chloro-6-(2-naphthalenyloxy)-3-pyridinyl)-N-(methylsulfonyl)-3-(3-oxetanyloxy)benzamide] was run?
Its IC50 is 99.4 nM.

With Cc1cc(Oc2ncc(-c3ccc(C(=O)NS(C)(=O)=O)cc3OC(F)F)cc2Cl)ccc1Cl [Example 453, 4-(5-chloro-6-(4-chloro-3-methylphenoxy)-3-pyridinyl)-3-(difluoromethoxy)-N-(methylsulfonyl)benzamide] as the compound, how does the IC50 read?
The IC50 was 60.3 nM.

Same assay, conditions: at 5 µM (5 uM)

How did the “NAV 1.7 PX inhibition” value turn out when COc1nccc(C)c1-c1cc(C(=O)NS(C)(=O)=O)ccc1-c1cnc(OCC(C)C)c(Cl)c1 [Example 820, 4-(5-Chloro-6-Isobutoxypyridin-3-yl)-3-(2-Methoxy-4-Methylpyridin-3-yl)-N-(Methylsulfonyl)Benzamide] was run?
The value was 23%.

Same assay, conditions: in-vitro Nav 1.7 PX data

With COc1cc(C(=O)NS(C)(=O)=O)c(F)cc1-c1cnc(NCC2CC(C)(C)C2)c(Cl)c1 [Example 723, 4-(5-chloro-6-(((3,3-dimethylcyclobutyl)methyl)amino)-3-pyridinyl)-2-fluoro-5-methoxy-N-(methylsulfonyl)benzamide] as the compound, how does the IC50 read?
The IC50 was 74.8 nM.

COc1cc(C(=O)NS(C)(=O)=O)c(F)cc1-c1cnc(N[C@@H]2CCC23CCC3)c(Cl)c1 [Example 722, 4-(5-chloro-6-((1R)-spiro[3.3]hept-1-ylamino)-3-pyridinyl)-2-fluoro-5-methoxy-N-(methylsulfonyl)benzamide, 4-(5-chloro-6-((1S)-spiro[3.3]hept-1-ylamino)-3-pyridinyl)-2-fluoro-5-methoxy-N-(methylsulfonyl)benzamide] was tested. Which IC50 did it give?
Its IC50 is 110 nM.

With COc1cc(C(=O)NS(C)(=O)=O)c(F)cc1-c1cnc(Oc2cc(F)c(Cl)c(F)c2)c(Cl)c1 [Example 763, 4-(5-chloro-6-(4-chloro-3,5-difluorophenoxy)-3-pyridinyl)-2-fluoro-5-methoxy-N-(methylsulfonyl)benzamide] as the compound, how does the IC50 read?
Its IC50 is 47.1 nM.

Which IC50 does the source give for CS(=O)(=O)NC(=O)c1cc(C2CC2)c(-c2cnc(OC3CCC3)c(Cl)c2)cc1F [Example 802, 4-(5-chloro-6-cyclobutoxypyridin-3-yl)-5-cyclopropyl-2-fluoro-N-(methylsulfonyl)benzamide] here?
The IC50 was 136 nM.

With COc1cc(C(=O)NS(C)(=O)=O)c(F)cc1-c1cnc(O[C@H](C)c2ccc(F)cc2Cl)c(Cl)c1 [Example 761, 4-(5-chloro-6-((1R)-1-(2-chloro-4-fluorophenyl)ethoxy)-3-pyridinyl)-2-fluoro-5-methoxy-N-(methylsulfonyl)benzamide] as the compound, how does the IC50 read?
Its IC50 is 82.1 nM.

For COc1cc(C(=O)NS(C)(=O)=O)c(F)cc1-c1cnc(O[C@@H](C)CC(C)C)c(Cl)c1 [Example 726, 4-(5-chloro-6-(((1S)-1,3-dimethylbutyl)oxy)-3-pyridinyl)-2-fluoro-5-methoxy-N-(methylsulfonyl)benzamide], which IC50 is on record?
Its IC50 is 80.5 nM.

How did the IC50 turn out when COc1cc(C(=O)NS(C)(=O)=O)c(F)cc1-c1cnc(Oc2cc(Cl)ccc2F)c(Cl)c1 [Example 747, 4-(5-chloro-6-(5-chloro-2-fluorophenoxy)-3-pyridinyl)-2-fluoro-5-methoxy-N-(methylsulfonyl)benzamide] was run?
Its IC50 is 83.6 nM.

For COc1ncc(F)cc1-c1cc(-c2cc(F)c(C(=O)NS(C)(=O)=O)cc2F)cnc1OCC(C)C [Example 837, 2,5-Difluoro-4-(5′-Fluoro-2′-Methoxy-2-(2-Methylpropoxy)-3,3′-Bipyridin-5-yl)-N-(Methylsulfonyl)Benzamide], which IC50 is on record?
The IC50 was 810 nM.

For CCS(=O)(=O)NC(=O)c1ccc(-c2cnc(OC3CCC3)c(Cl)c2)c(OC)c1 [Example 790, 4-(5-chloro-6-(cyclobutyloxy)-3-pyridinyl)-N-(ethylsulfonyl)-3-methoxybenzamide], which IC50 is on record?
The IC50 was 123 nM.

Which IC50 does the source give for COc1cc(C(=O)NS(C)(=O)=O)c(F)cc1-c1cnc(NC2CCC(C)(C)CC2)c(Cl)c1 [Example 724, 4-(5-chloro-6-((4,4-dimethylcyclohexyl)amino)-3-pyridinyl)-2-fluoro-5-methoxy-N-(methylsulfonyl)benzamide] here?
Its IC50 is 106 nM.

With Cc1cc(C(=O)NS(=O)(=O)C2CC2)c(F)cc1-c1cnc(OC2CCC2)c(Cl)c1 [Example 797, 4-(5-chloro-6-(cyclobutyloxy)-3-pyridinyl)-N-(cyclopropylsulfonyl)-2-fluoro-5-methylbenzamide] as the compound, how does the IC50 read?
Its IC50 is 98.8 nM.

COc1cc(C(=O)NS(C)(=O)=O)c(F)cc1-c1cnc(Oc2c(Cl)cc(F)cc2Cl)c(Cl)c1 [Example 737, 4-(5-chloro-6-(2,6-dichloro-4-fluorophenoxy)-3-pyridinyl)-2-fluoro-5-methoxy-N-(methylsulfonyl)benzamide] was tested. Which IC50 did it give?
The IC50 was 100 nM.

COc1cc(C(=O)NS(C)(=O)=O)c(F)cc1-c1cnc(O[C@@H]2CCC[C@H]2C)c(Cl)c1 [Example 727, 4-(5-chloro-6-(((1R,2R)-2-methylcyclopentyl)oxy)-3-pyridinyl)-2-fluoro-5-methoxy-N-(methylsulfonyl)benzamide] was tested. Which IC50 did it give?
Its IC50 is 102 nM.

Which IC50 does the source give for COc1cc(C(=O)NS(C)(=O)=O)ccc1-c1cnc(Oc2ccc(C)c(Cl)c2)c(C#N)c1 [Example 829, 4-(6-(3-chloro-4-methylphenoxy)-5-cyano-3-pyridinyl)-3-methoxy-N-(methylsulfonyl)benzamide] here?
The IC50 was 50.5 nM.

How did the IC50 turn out when COc1cc(C(=O)NS(C)(=O)=O)c(F)cc1-c1cnc(O[C@@H](C)C2CCC2)c(Cl)c1 (single isomer, unassigned) [Example 767] was run?
Its IC50 is 77.6 nM.

For COc1cccc(CSc2ncc(-c3cc(F)c(C(=O)NS(C)(=O)=O)cc3C)cc2Cl)c1 [Example 818, 4-(5-Chloro-6-((3-Methoxybenzyl)Thio)-Pyridin-3-yl)-2-Fluoro-5-Methyl-N-(Methylsulfonyl)Benzamide], which IC50 is on record?
Its IC50 is 169 nM.

CCc1ccc(-c2cc(F)c(C(=O)NS(C)(=O)=O)cc2C)cc1Cl [Example 814, 3′-chloro-4′-ethyl-5-fluoro-2-methyl-N-(methylsulfonyl)-4-biphenylcarboxamide] was tested. Which IC50 did it give?
Its IC50 is 381 nM.

For Cc1cc(Cl)cc(Cl)c1Oc1ncc(-c2ccc(C(=O)NS(C)(=O)=O)cc2Cl)cc1Cl [Example 776, 3-chloro-4-(5-chloro-6-(2,4-dichloro-6-methylphenoxy)-3-pyridinyl)-N-(methylsulfonyl)benzamide], which IC50 is on record?
The IC50 was 34.5 nM.

Which IC50 does the source give for COc1cc(C(=O)NS(C)(=O)=O)c(F)cc1-c1cnc(Oc2ccc(F)cc2F)c(Cl)c1 [Example 742, 4-(5-chloro-6-(2,4-difluorophenoxy)-3-pyridinyl)-2-fluoro-5-methoxy-N-(methylsulfonyl)benzamide] here?
The IC50 was 94 nM.

Source: patent publication US9663508B2, “Biaryl acyl-sulfonamide compounds as sodium channel inhibitors” (AMGEN INC., priority 2013, dated 2017)
